This note sets out measurements from paper PMC4320098, “Identification and Characterization of a Novel Phosphodiesterase from the Metagenome of an Indian Coalbed” (PLoS ONE, 2015).

The Km is the substrate concentration at which the rate is half of its maximum.

The target of data set [1] is PdeM (uncultured organism, UniProt S5THN5). The data set is described as follows: p-nitrophenol release, absorbance […] nm, Michaelis-Menten non-linear fit. The data set is classed as biochemical. Particulars: 2 mM MnCl2, 50 mM Tris-HCl pH 8.5, 5 mM beta-ME, 10 mM NaCl, 25 °C, 30 min.
The subject of data set [2] is O=[N+]([O-])c1ccc(OP(=O)(O)Oc2ccc([N+](=O)[O-])cc2)cc1. The data set can be described thus: purified protein. The data set is classed as biochemical, uncultured organism. Particulars: pH 8.5; 25.0 °C.

Chain of PdeM (S5THN5 entry or part of it): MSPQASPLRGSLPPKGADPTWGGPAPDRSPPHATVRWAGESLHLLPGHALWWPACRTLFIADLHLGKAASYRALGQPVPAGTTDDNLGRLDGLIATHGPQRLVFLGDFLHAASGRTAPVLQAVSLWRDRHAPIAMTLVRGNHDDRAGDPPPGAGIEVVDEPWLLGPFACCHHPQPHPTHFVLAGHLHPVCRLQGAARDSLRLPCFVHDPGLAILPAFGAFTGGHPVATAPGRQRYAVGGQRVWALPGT

Regarding `O=[N+]([O-])c1ccc(OP(=O)(O)c2ccccc2)cc1` [pNPPP], in data set [1], the Km came to 7.2 ± 1.4 mM.

With PdeM (uncultured organism), the Km in data set [2] is given as 10.21 ± 1.6 mM.
